# Tests used:
# [1] = test system: Escherichia coli JR66/W677; experiment: Antibacterial MIC, standard serial dilution; assay type: cell-based; conditions: nutrient agar, 37° C., 17 hours, as free base
# [2] = test system: Pseudomonas aeruginosa H11; experiment: Antibacterial MIC, standard serial dilution; assay type: cell-based; conditions: nutrient agar, 37° C., 17 hours, as free base
# [3] = test system: Escherichia coli K-12 R388; experiment: Antibacterial MIC, standard serial dilution; assay type: cell-based; conditions: nutrient agar, 37° C., 17 hours, as free base
# [4] = test system: Serratia marcescens; experiment: Antibacterial MIC, standard serial dilution; assay type: cell-based; conditions: nutrient agar, 37° C., 17 hours, as free base
# [5] = test system: Mycobacterium smegmatis ATCC 607; experiment: Antibacterial MIC, standard serial dilution; assay type: cell-based; conditions: nutrient agar, 37° C., 17 hours, as free base
# [6] = test system: Staphylococcus aureus FDA 209P; experiment: Antibacterial MIC, standard serial dilution; assay type: cell-based; conditions: nutrient agar, 37° C., 17 hours, as free base
# [7] = test system: Staphylococcus epidermidis 109; experiment: Antibacterial MIC, standard serial dilution; assay type: cell-based; conditions: nutrient agar, 37° C., 17 hours, as free base
# [8] = test system: Pseudomonas aeruginosa No. 12; experiment: Antibacterial MIC, standard serial dilution; assay type: cell-based; conditions: nutrient agar, 37° C., 17 hours, as free base
# [9] = test system: Pseudomonas aeruginosa K-Ps 102; experiment: Antibacterial MIC, standard serial dilution; assay type: cell-based; conditions: nutrient agar, 37° C., 17 hours, as free base
# [10] = test system: Serratia sp. SOU; experiment: Antibacterial MIC, standard serial dilution; assay type: cell-based; conditions: nutrient agar, 37° C., 17 hours, as free base
# [11] = test system: Pseudomonas maltophilia GN 907; experiment: Antibacterial MIC, standard serial dilution; assay type: cell-based; conditions: nutrient agar, 37° C., 17 hours, as free base
# [12] = test system: Salmonella enteritidis 1891; experiment: Antibacterial MIC, standard serial dilution; assay type: cell-based; conditions: nutrient agar, 37° C., 17 hours, as free base
# [13] = test system: Sarcina lutea PCI 1001; experiment: Antibacterial MIC, standard serial dilution; assay type: cell-based; conditions: nutrient agar, 37° C., 17 hours, as free base
# [14] = test system: Pseudomonas aeruginosa 99; experiment: Antibacterial MIC, standard serial dilution; assay type: cell-based; conditions: nutrient agar, 37° C., 17 hours, as free base
# [15] = test system: Klebsiella pneumoniae PCI602; experiment: Antibacterial MIC, standard serial dilution; assay type: cell-based; conditions: nutrient agar, 37° C., 17 hours, as free base
# [16] = test system: Serratia sp. 4; experiment: Antibacterial MIC, standard serial dilution; assay type: cell-based; conditions: nutrient agar, 37° C., 17 hours, as free base
# [17] = test system: Escherichia coli K-12 ML1629; experiment: Antibacterial MIC, standard serial dilution; assay type: cell-based; conditions: nutrient agar, 37° C., 17 hours, as free base
# [18] = test system: Micrococcus flavus FDA 16; experiment: Antibacterial MIC, standard serial dilution; assay type: cell-based; conditions: nutrient agar, 37° C., 17 hours, as free base
# [19] = test system: Escherichia coli K-12; experiment: Antibacterial MIC, standard serial dilution; assay type: cell-based; conditions: nutrient agar, 37° C., 17 hours, as free base
# [20] = test system: Escherichia coli K-12 ML1630; experiment: Antibacterial MIC, standard serial dilution; assay type: cell-based; conditions: nutrient agar, 37° C., 17 hours, as free base
# [21] = test system: bacteria; conditions: in words; earlier work; cited from earlier work
# [22] = test system: Pseudomonas aeruginosa PST1; experiment: Antibacterial MIC, standard serial dilution; assay type: cell-based; conditions: nutrient agar, 37° C., 17 hours, as free base
# [23] = test system: Klebsiella pneumoniae 22#3038; experiment: Antibacterial MIC, standard serial dilution; assay type: cell-based; conditions: nutrient agar, 37° C., 17 hours, as free base
# [24] = test system: Escherichia coli NIHJ; experiment: Antibacterial MIC, standard serial dilution; assay type: cell-based; conditions: nutrient agar, 37° C., 17 hours, as free base
# [25] = test system: Bacillus subtilis PCI 219; experiment: Antibacterial MIC, standard serial dilution; assay type: cell-based; conditions: nutrient agar, 37° C., 17 hours, as free base
# [26] = test system: Proteus rettgeri GN466; experiment: Antibacterial MIC, standard serial dilution; assay type: cell-based; conditions: nutrient agar, 37° C., 17 hours, as free base
# [27] = test system: Escherichia coli W677; experiment: Antibacterial MIC, standard serial dilution; assay type: cell-based; conditions: nutrient agar, 37° C., 17 hours, as free base
# [28] = test system: Bacillus subtilis NRRL B-558; experiment: Antibacterial MIC, standard serial dilution; assay type: cell-based; conditions: nutrient agar, 37° C., 17 hours, as free base
# [29] = test system: Bacillus cereus ATCC 10702; experiment: Antibacterial MIC, standard serial dilution; assay type: cell-based; conditions: nutrient agar, 37° C., 17 hours, as free base
# [30] = test system: Pseudomonas aeruginosa H9; experiment: Antibacterial MIC, standard serial dilution; assay type: cell-based; conditions: nutrient agar, 37° C., 17 hours, as free base
# [31] = test system: Pseudomonas aeruginosa 21-75; experiment: Antibacterial MIC, standard serial dilution; assay type: cell-based; conditions: nutrient agar, 37° C., 17 hours, as free base
# [32] = test system: Pseudomonas aeruginosa TI-13; experiment: Antibacterial MIC, standard serial dilution; assay type: cell-based; conditions: nutrient agar, 37° C., 17 hours, as free base
# [33] = test system: Shigella dysenteriae JS11910; experiment: Antibacterial MIC, standard serial dilution; assay type: cell-based; conditions: nutrient agar, 37° C., 17 hours, as free base
# [34] = test system: Providencia sp. 2991; experiment: Antibacterial MIC, standard serial dilution; assay type: cell-based; conditions: nutrient agar, 37° C., 17 hours, as free base
# [35] = test system: Bacillus anthracis; assay type: cell-based; conditions: nutrient agar, 37° C., 17 hours, as free base
# [36] = test system: Staphylococcus aureus Ap01; experiment: Antibacterial MIC, standard serial dilution; assay type: cell-based; conditions: nutrient agar, 37° C., 17 hours, as free base
# [37] = test system: Pseudomonas aeruginosa A3; experiment: Antibacterial MIC, standard serial dilution; assay type: cell-based; conditions: nutrient agar, 37° C., 17 hours, as free base
# [38] = test system: Salmonella typhi T-63; experiment: Antibacterial MIC, standard serial dilution; assay type: cell-based; conditions: nutrient agar, 37° C., 17 hours, as free base
# [39] = test system: Escherichia coli K-12 J5R11-2; experiment: Antibacterial MIC, standard serial dilution; assay type: cell-based; conditions: nutrient agar, 37° C., 17 hours, as free base
# [40] = test system: Proteus rettgeri GN311; experiment: Antibacterial MIC, standard serial dilution; assay type: cell-based; conditions: nutrient agar, 37° C., 17 hours, as free base
# [41] = test system: Pseudomonas aeruginosa B-13; experiment: Antibacterial MIC, standard serial dilution; assay type: cell-based; conditions: nutrient agar, 37° C., 17 hours, as free base
# [42] = test system: Shigella sonnei JS11746; experiment: Antibacterial MIC, standard serial dilution; assay type: cell-based; conditions: nutrient agar, 37° C., 17 hours, as free base
# [43] = test system: Escherichia coli K-12 ML1410; experiment: Antibacterial MIC, standard serial dilution; assay type: cell-based; conditions: nutrient agar, 37° C., 17 hours, as free base
# [44] = test system: Staphylococcus aureus Smith; experiment: Antibacterial MIC, standard serial dilution; assay type: cell-based; conditions: nutrient agar, 37° C., 17 hours, as free base
# [45] = test system: Proteus vulgaris 0X19; experiment: Antibacterial MIC, standard serial dilution; assay type: cell-based; conditions: nutrient agar, 37° C., 17 hours, as free base
# [46] = test system: Pseudomonas aeruginosa GN315; experiment: Antibacterial MIC, standard serial dilution; assay type: cell-based; conditions: nutrient agar, 37° C., 17 hours, as free base
# [47] = test system: Pseudomonas aeruginosa ROS 134/PU21; experiment: Antibacterial MIC, standard serial dilution; assay type: cell-based; conditions: nutrient agar, 37° C., 17 hours, as free base
# [48] = test system: Corynebacterium bovis 1810; experiment: Antibacterial MIC, standard serial dilution; assay type: cell-based; conditions: nutrient agar, 37° C., 17 hours, as free base
# [49] = test system: Escherichia coli JR225; experiment: Antibacterial MIC, standard serial dilution; assay type: cell-based; conditions: nutrient agar, 37° C., 17 hours, as free base
# [50] = test system: Providencia sp. Pv16; experiment: Antibacterial MIC, standard serial dilution; assay type: cell-based; conditions: nutrient agar, 37° C., 17 hours, as free base
smiles,measurement,setting,value
"CNC[C@@H]1CC[C@@H](N)[C@@H](O[C@H]2[C@H](O)[C@H](N(C)C(=O)CN)[C@@H](OC)C[C@H]2N)O1 [B, istamycin B]",MIC,[1],1.56 µg/mL
same,MIC,[2],100 µg/mL
same,MIC,[3],0.78 µg/mL
same,MIC,[4],1.56 µg/mL
same,MIC,[5],0.78 µg/mL
same,MIC,[6],0.39 µg/mL
same,MIC,[7],0.39 µg/mL
same,MIC,[8],50 µg/mL
same,MIC,[9],50 µg/mL
same,MIC,[10],25 µg/mL
same,MIC,[11],100 µg/mL
same,MIC,[12],3.13 µg/mL
same,MIC,[13],0.39 µg/mL
same,MIC,[14],100 µg/mL
same,MIC,[15],3.13 µg/mL
same,MIC,[16],50 µg/mL
same,MIC,[17],1.56 µg/mL
same,MIC,[18],12.5 µg/mL
same,MIC,[19],0.78 µg/mL
same,MIC,[20],3.13 µg/mL
same,antibacterial activity,[21],higher antibacterial activity than istamycin A
same,MIC,[22],50 µg/mL
same,MIC,[23],1.56 µg/mL
same,MIC,[24],0.39 µg/mL
same,MIC,[25],0.39 µg/mL
same,MIC,[26],0.78 µg/mL
same,MIC,[27],0.78 µg/mL
same,MIC,[28],0.39 µg/mL
same,MIC,[29],6.25 µg/mL
same,MIC,[30],50 µg/mL
same,MIC,[31],100 µg/mL
same,MIC,[32],50 µg/mL
same,MIC,[33],3.13 µg/mL
same,MIC,[34],3.13 µg/mL
same,MIC,[35],0.78 µg/mL
same,MIC,[36],0.78 µg/mL
same,MIC,[37],1.56 µg/mL
same,MIC,[38],0.39 µg/mL
same,MIC,[39],1.56 µg/mL
same,MIC,[40],0.78 µg/mL
same,MIC,[41],> 100 µg/mL
same,MIC,[42],0.78 µg/mL
same,MIC,[43],3.13 µg/mL
same,MIC,[44],0.39 µg/mL
same,MIC,[45],0.39 µg/mL
same,MIC,[46],50 µg/mL
same,MIC,[47],> 100 µg/mL
same,MIC,[48],0.39 µg/mL
same,MIC,[49],1.56 µg/mL
same,MIC,[50],1.56 µg/mL

# Reference: patent US4479943A, “3-Demethoxyistamycin B, the 2"-N-formimidoyl derivative thereof and pharmaceutical composition containing same” (Zaidan Hojin Biseibutsu Kagaku Kenkyu Kai, priority 1982, dated 1984)
